Test results as given in publication PMC9181938, “Fluorinated Analogues of Lepidilines A and C: Synthesis and Screening of Their Anticancer and Antiviral Activity” (Molecules, 2022).
Like-named read-outs stand apart in the source and are kept apart here.

Columns and labels:
[1] = Cytotoxicity screening at 10 µM (MTT); type: cell-based, Cercopithecus aethiops; settings: Cercopithecus aethiops, Vero cells, read-out: Cell line (viability %) Vero
LLC-MK2 cells [2] = experiment: Cytotoxicity MTT assay (0.1–1000 µM), CC50; type: cell-based, Macaca mulatta; settings: Table S2, range 0.1-1000 µM, LLC-MK2; read-out: Cell line (CC50 M) LLC-MK2
[3] = Cytotoxicity MTT assay (0.1–1000 µM), CC50; type: cell-based, Macaca mulatta; settings: Macaca mulatta, LLC-MK2 cells, LLC-MK2, MTT, 48 h; read-out: CC50 Normal Cell Lines LLC-MK2
[4] = tested on: Human parainfluenza virus type 3 (HPIV-3); experiment: Antiviral activity assay (0.1–1000 µM), IC50; type: cell-based
Description: (§1) Antiviral properties of compounds 1e–1g, 1e[PF6], 8a–8d, and 9a were assessed against five viruses: Human herpesvirus 1 (HSV-1, VR-539), Human parainfluenza virus type 3 (HPIV-3, VR-93), Human adenovirus 5 (AdV5, VR-5), Human herpesvirus 5 (HCMV, VR-977), and Encephalomyocarditis virus (EMCV, VR-1479). Viruses were purchased from the American Type Culture Collection (ATCC, Manassas, VA, USA).
(§2) All tested compounds were dissolved in DMSO (dimethyl sulfoxide, Sigma-Aldrich, Darmstadt, Germany) and then suspended in Minimum Essential Medium (MEM; Sigma-Aldrich, Darmstadt, Germany) supplemented with 2% heat-inactivated fetal bovine serum (FBS; Sigma-Aldrich, Darmstadt, Germany), 2 mM L-glutamine (Sigma-Aldrich, Darmstadt, Germany), and 100 units/mL penicillin G with […] streptomycin (Sigma-Aldrich, Darmstadt, Germany).
(§3) Investigated cells were propagated in Minimum Essential Medium (MEM; Sigma-Aldrich, Darmstadt, Germany) supplemented with 10% heat-inactivated fetal bovine serum (FBS; Sigma-Aldrich, Darmstadt, Germany) and 100 units/mL penicillin G with […] streptomycin (Sigma-Aldrich, Darmstadt, Germany). After reaching 80–90% confluency, cells were harvested with trypsin (Life Technologies, Warsaw, Poland) and seeded into 96-well microplates at 2 × 10^5 cells/mL after overnight incubation of cells at 37 °C in a humidified atmosphere containing 5% CO2.
(§4) The culture medium was removed from confluent cells grown in 96-well microplates, and the cells were inoculated with virus solutions in MEM supplemented with 2% FBS and antibiotics (HSV-1 MOI 0.005, 1000 virions/mL; HPIV-3 MOI 0.01, 2000 virions/mL; AdV5 MOI 0.005, 1000 virions/mL; EMCV 0.005, 1000 virions/mL; HCMV 20 PFU/well (plaque-forming units per well). After a 1-h (HSV-1, HPIV-3, AdV5, and EMCV) or 2-h adsorption period (HCMV), residual viral particles were removed, and infected cells were further incubated with MEM supplemented with 2% FBS containing compound concentrations in the range from 0.1 to 1000 µM [38]. All experiments were carried out in triplicate. The cell monolayers were incubated with the investigated compounds at 37 °C in a humidified atmosphere containing 5% CO2 until a cytopathic effect (CPE) was visible. Viral infection was evaluated by the MTT assay (as described previously) or plaque reduction assay. HCMV plaques were counted under an inverted microscope, Olympus IX73 (Olympus, Tokyo, Japan). Antiviral activity was expressed as the concentration required to reduce the number of viral plaques to 50% of the control (virus-infected but untreated).

[5] = tested on: Human adenovirus 5 (AdV5); experiment: Antiviral screening at 10 µM; type: cell-based; settings: AdV5-infected cells
Description: (§5) Antiviral properties of compounds 1a, 1c, 1a[PF6], 1c[PF6], 9b[PF6], 9c[PF6], 10a–10d, 2a, and 2b were assessed against five viruses: Human herpesvirus 1 (HSV-1, VR-539), Human parainfluenza virus type 3 (HPIV-3, VR-93), Human adenovirus 5 (AdV5, VR-5), Human herpesvirus 5 (HCMV, VR-977), and Encephalomyocarditis virus (EMCV, VR-1479). Viruses were purchased from the American Type Culture Collection (ATCC, Manassas, VA, USA).
as §2
(§6) Vero, LLC-MK2, NCTC clone 929, MRC-5, and HeLa cells were propagated in Minimum Essential Medium (MEM; Sigma-Aldrich, Darmstadt, Germany) supplemented with 10% heat-inactivated fetal bovine serum (FBS; Sigma-Aldrich, Darmstadt, Germany) and 100 units/mL penicillin G with […] streptomycin (Sigma-Aldrich, Darmstadt, Germany). Upon reaching 80–90% confluency, cells were harvested with 0.25% trypsin in 1 mM EDTA (Life Technologies, Warsaw, Poland) and seeded onto 96-well microplates at 2 × 10^5 cells/mL. After overnight incubation of cells at 37 °C in a humidified atmosphere containing 5% CO2, the culture medium was removed, and cells were inoculated with the respective virus solution in MEM supplemented with 2% FBS and antibiotics (HSV-1 MOI 0.005, 1000 virions/mL; HPIV-3 MOI 0.01, 2000 virions/mL; AdV5 MOI 0.005, 1000 virions/mL, EMCV MOI 0.005, 1000 virions/mL, HCMV 20 PFU (plaque forming units) per well). After a 1-h (HSV-1, HPIV-3, AdV5, and EMCV) or 2-h adsorption period (HCMV), the residual virus was removed, and the infected cells were further incubated with a 100 μL freshly prepared solution of tested compounds diluted with a maintenance medium supplemented with 2% FBS to obtain compound concentrations of 10 µM. The final concentration of DMSO in the medium was 0.1%. All experiments were carried out in triplicate. The cells monolayers were incubated with the compounds at 37 °C in a humidified atmosphere containing 5% CO2 until the typical cytopathic effect (CPE) was visible. Viral infection was evaluated by the MTT assay or plaque reduction assay (HCMV). After incubation with drugs, the cells were treated with 3-(4,5-dimethylthiazol-2-yl)-2,5-diphenyltetrazolium bromide dye solution (MTT, Sigma-Aldrich, Darmstadt, Germany) (25 μL, 5 mg/mL) for 2 h and lysed with solvent solution (100 μL) containing: DMF (Sigma-Aldrich, Darmstadt, Germany) (45 mL), SDS (Sigma-Aldrich, Darmstadt, Germany) (13.5 g), and distilled water (55 mL). After overnight incubation at 37 °C, the optical density at 550 nm and a reference wavelength of 670 nm were measured on a microplate spectrophotometer, Varioskan Lux (Thermo Fisher Scientific, Waltham, MA, USA). The number of HCMV plaques was counted under an inverted microscope Olympus IX73 (Olympus, Tokyo, Japan).

[6] = tested on: Human parainfluenza virus type 3 (HPIV-3); experiment: Antiviral screening at 10 µM; type: cell-based; settings: HPIV-3-infected cells
Description: as §5, §2, §6

[7] = tested on: Human herpesvirus 1 (HSV-1); experiment: Antiviral screening at 10 µM; type: cell-based; settings: HSV-1-infected cells
Description: as §5, §2, §6

[8] = tested on: Encephalomyocarditis virus (EMCV); experiment: Antiviral screening at 10 µM; type: cell-based; settings: Cardiovirus A, EMCV-infected cells, read-out: Cell line (viability %) EMCV
Description: as §5, §2, §6

[9] = Cytotoxicity screening at 10 µM (MTT); type: cell-based, Human; settings: human, MRC-5 cells, read-out: Cell line (viability %) MRC-5
NCTC clone 929 cells = experiment: Cytotoxicity screening at 10 µM (MTT); type: cell-based, Mus musculus; settings: 48 h
[10] = Cytotoxicity screening at 10 µM (MTT); type: cell-based, Macaca mulatta; settings: Macaca mulatta, LLC-MK2 cells, read-out: Cell line (viability %) LLC-MK2
[11] = Cytotoxicity screening at 10 µM (MTT); type: cell-based, Human; settings: human, HeLa cells, read-out: Cell line (viability %) HeLa
[12] = Cytotoxicity screening at 10 µM (MTT); type: cell-based, Mus musculus; settings: Mus musculus, NCTC clone 929 cells, read-out: Cell line (viability %) NCTC clone 929
LLC-MK2 cells [13] = experiment: Cytotoxicity screening at 10 µM (MTT); type: cell-based, Macaca mulatta; settings: 48 h
[14] = Cytotoxicity MTT assay (0.1–1000 µM), CC50; type: cell-based, Human; settings: human, A549 cells, read-out: CC50 Cancer Cell Lines A549
[15] = Cytotoxicity MTT assay (0.1–1000 µM), CC50; type: cell-based, Human; settings: human, MRC-5 cells, MRC-5, MTT, read-out: CC50 Normal Cell Lines MRC-5
[16] = Cytotoxicity MTT assay (0.1–1000 µM), CC50; type: cell-based, Cercopithecus aethiops; settings: Cercopithecus aethiops, Vero cells, read-out: CC50 Normal Cell Lines Vero
[17] = Cytotoxicity MTT assay (0.1–1000 µM), CC50; type: cell-based, Human; settings: human, HepG2 cells, read-out: CC50 Cancer Cell Lines HepG2
[18] = Cytotoxicity MTT assay (0.1–1000 µM), CC50; type: cell-based, Human; settings: human, HeLa cells, MTT, 48 h, read-out: CC50 Cancer Cell Lines HeLa
[19] = tested on: Human adenovirus 5 (AdV5); experiment: Antiviral activity assay (0.1–1000 µM), IC50; type: cell-based; settings: Human mastadenovirus C; AdV5, MOI 0.005; read-out: IC50 AdV5
Description: as §1, §2, §3, §4

[20] = tested on: Human herpesvirus 1 (HSV-1); experiment: Antiviral activity assay (0.1–1000 µM), IC50; type: cell-based; settings: Human alphaherpesvirus 1; HSV-1, MOI 0.005
Description: as §1, §2, §3, §4

[21] = tested on: Encephalomyocarditis virus (EMCV); experiment: Antiviral activity assay (0.1–1000 µM), IC50; type: cell-based; settings: Cardiovirus A, MOI 0.005, read-out: IC50 EMCV
Description: as §1, §2, §3, §4

[22] = Cytotoxicity MTT assay (0.1–1000 µM), CC50; type: cell-based, Mus musculus; settings: Mus musculus, NCTC clone 929 cells, NCTC clone 929, MTT, 48 h; read-out: CC50 Normal Cell Lines NCTC Clone 929
[23] = tested on: Human herpesvirus 5 (HCMV); experiment: Antiviral activity assay (0.1–1000 µM), IC50, plaque reduction; type: cell-based; settings: Human betaherpesvirus 5, 20 PFU/well
Description: as §1, §2, §3, §4

[24] = Table S4, range 0.1-1000 µM, HPIV-3, read-out: IC50 (M) HPIV-3
[25] = Human respirovirus 3, HPIV-3, MOI 0.01, read-out: IC50 HPIV-3

| Compound | viability at 48 h, 10 µM [1] | CC50 (LLC-MK2 cells [2]) | CC50 at 48 h [3] | IC50 [4, 24] | viability at 10 µM [8] | viability at 48 h, 10 µM [9] | viability at 48 h, 10 µM [11] | CC50 at 48 h [14] | CC50 at 48 h [15] | CC50 at 48 h [16] | CC50 at 48 h [17] | CC50 at 48 h [18] | IC50 [19] | IC50 [4, 25] | IC50 [20] | IC50 [21] | CC50 at 48 h [22] | melting point | IC50 [23] | also measured |
| --- | --- | --- | --- | --- | --- | --- | --- | --- | --- | --- | --- | --- | --- | --- | --- | --- | --- | --- | --- | --- |
| Cc1c(C)[n+](Cc2ccccc2)cn1Cc1ccccc1 [Compound 1a, lepidiline A, reference compound] | 90.5% | 67.7 ± 2.52 µM | < 80 µM | > 6.77e-05 M | 7.4% | 90.2% | 43% |  |  |  |  |  |  |  |  |  |  |  |  | Cell line (viability %) AdV5 [5]: 45.8%; Cell line (viability %) HPIV-3 ([6]; antiviral screening): 86.0%; Cell line (viability %) HSV-1 ([7]; antiviral screening): 48.0%; Cell line (viability %) NCTC clone 929 (NCTC clone 929 cells): 86.0%; viability at 48 h, 10 µM [10]: 76.3% |
| COc1cccc(Cn2c[n+](Cc3ccccc3)c(C)c2C)c1 [Compound 1c, lepidiline C, reference compound] | 90.7% | 28.3 ± 5.86 µM | < 80 µM | > 2.83e-05 M | 7.7% | 76.7% | 8.9% |  |  |  |  |  |  |  |  |  |  |  |  | viability at 10 µM ([5]; Human mastadenovirus C, read-out: Cell line (viability %) AdV5): 17.9%; viability at 10 µM ([6]; Human respirovirus 3, antiviral screening, read-out: Cell line (viability %) HPIV-3): 90.4%; viability at 10 µM ([7]; Human alphaherpesvirus 1, antiviral screening, read-out: Cell line (viability %) HSV-1): 18.6%; viability at 48 h, 10 µM [12]: 8.8%; Cell line (viability %) LLC-MK2 (LLC-MK2 cells [13]): 78.4% |
| Cc1c(C)[n+](OCc2ccccc2)cn1Cc1ccccc1C(F)(F)F.[Br-] [Compound 8c, 3-Benzyloxy-4,5-dimethyl-1-(2-(trifluoromethyl)benzyl)imidazolium bromide] |  |  | 55 ± 1 µM |  |  |  |  | 7.37 ± 0.32 µM | 45.7 ± 3.79 µM | 53.7 ± 1.53 µM | 95 ± 1 µM | 16 ± 1 µM | > 16 µM | > 5.5e-05 M | > 53.7 µM | > 28.5 µM | 28.5 ± 0.5 µM | 123 to 125 °C | > 45.7 µM |  |
| Cc1c(C)[n+](OCc2ccccc2)cn1Cc1ccc(C(F)(F)F)cc1.[Br-] [Compound 8d, 3-Benzyloxy-4,5-dimethyl-1-[4-(trifluoromethyl)benzyl]imidazolium bromide] |  |  | 7.5 ± 1 µM |  |  |  |  | 5.07 ± 0.12 µM | 59.7 ± 2.52 µM | 229 ± 9.02 µM | 322 ± 5.77 µM | 5.5 ± 0.5 µM | > 5.5 µM | > 7.5e-06 M | > 229 µM | > 283 µM | 283 ± 10.4 µM | 180 to 182 °C (dec.) | > 59.7 µM |  |
